Common to all, as to test: Kinetic characterization of purified Ald with varied substrate CoA (Example 4, Table 5)
The test system of data set [1] is Acidaminococcus massiliensis aldehyde dehydrogenase (Ald), SEQ ID NO: 28. The data set is classed as biochemical. The conditions noted are these: for Catalytic efficiency kcat/KM / Km / Turnover number kcat: purified protein, substrate CoA varied, conditions similar to Example 1 (0.1 M Tris-HCl, pH 7.5). As for the experimental part:
(§1) The lysates (5 μl) were added to an assay mixture to result in a total volume of 20 μL with final concentrations of 0.1 M Tris-HCl, pH 7.5, 2.5 mM adipyl-CoA (AdCoA), and either 0.5 mM NADH or 0.5 mM NADPH. This assay was used to screen all of the Ald enzyme candidates. Some Ald candidates were also assayed using succinyl-CoA (SuCoA) or acetyl-CoA (AcCoA) as substrates. AdCoA, SuCoA, and AcCoA were obtained from commercial suppliers. Activity was monitored by a linear decrease in fluorescence of NADH or NADPH in the presence of the CoA substrate.
(§2) Kinetic characterization was done under similar conditions as the lysate screening described in Example 1; however, in this case purified protein was used instead of cell lysates. Each of the Acidaminococcus massiliensis Ald (SEQ ID NO:28), the Collinsella sp. GD7 Ald (SEQ ID NO:60), and the Romboutsia lituseburensis DSM Ald (SEQ ID NO:107) was purified using affinity chromatography. In these assays, the concentration each of the substrate CoAs was varied to determine the turnover number (kcat), the affinity of the enzyme for the substrate (KM) of the enzyme, the catalytic efficiency (kcat/KM) of each selected Ald enzyme for each substrate were determined and shown in the Table 5 below.
(§3) Catalytic efficiency (kcat/KM) of the various aldehyde dehydrogenases using various substrates were plotted in a bar graph for comparison (FIG. 3A).

The subject of data set [2] is Collinsella sp. GD7 aldehyde dehydrogenase (Ald), SEQ ID NO: 60. The format is biochemical. The conditions noted are these: for Catalytic efficiency kcat/KM / Km / Turnover number kcat: purified protein, substrate CoA varied, conditions similar to Example 1 (0.1 M Tris-HCl, pH 7.5). The protocol:
as §1, §2, §3

The target in data set [3] is Romboutsia lituseburensis DSM aldehyde dehydrogenase (Ald), SEQ ID NO: 107 (Romboutsia lituseburensis, UniProt A0A1G9MGA8). The data set is classed as biochemical. The settings on record: ratio of kcat/KM. The protocol:
as §1, §2, §3

The test system of data set [4] is CC(=O)SCCNC(=O)CCNC(=O)[C@H](O)C(C)(C)COP(=O)(O)OP(=O)(O)OC[C@H]1O[C@@H](n2cnc3c(N)ncnc32)[C@H](O)[C@@H]1OP(=O)(O)O. The format is biochemical, Romboutsia lituseburensis DSM. The conditions noted are these: other: purified protein, conditions similar to Example 1 (0.1 M Tris-HCl, pH 7.5). As for the experimental part:
as §1, §2, §3

The test system of data set [5] is CC(C)(COP(=O)(O)OP(=O)(O)OC[C@H]1O[C@@H](n2cnc3c(N)ncnc32)[C@H](O)[C@@H]1OP(=O)(O)O)[C@@H](O)C(=O)NCCC(=O)NCCSC(=O)CCC(=O)O. The data set is classed as biochemical, Romboutsia lituseburensis DSM. The conditions noted are these: other: purified protein, conditions similar to Example 1 (0.1 M Tris-HCl, pH 7.5). As for the experimental part: as §1, §2, §3
Data set [6] relates to CC(C)(COP(=O)(O)OP(=O)(O)OC[C@H]1O[C@@H](n2cnc3c(N)ncnc32)[C@H](O)[C@@H]1OP(=O)(O)O)[C@@H](O)C(=O)NCCC(=O)NCCSC(=O)CCCCC(=O)O. The data set is classed as biochemical, Romboutsia lituseburensis DSM. The conditions noted are these: other: purified protein, conditions similar to Example 1 (0.1 M Tris-HCl, pH 7.5). As for the experimental part:
as §1, §2, §3

A value given as a limit tells only on which side of the number the result lay.

One may read the Km as the concentration of substrate that gives half-maximal velocity. Turning to `CC(=O)SCCNC(=O)CCNC(=O)[C@H](O)C(C)(C)COP(=O)(O)OP(=O)(O)OC[C@H]1O[C@@H](n2cnc3c(N)ncnc32)[C@H](O)[C@@H]1OP(=O)(O)O` [Acetyl-CoA], in data set [1], the “Catalytic efficiency kcat/KM” value is 100 M⁻¹ s⁻¹, the Michaelis constant (Km) worked out at 380 µM and the Turnover number kcat is 0.040 s⁻¹. In data set [2], the “Catalytic efficiency kcat/KM” value was 1.6 M⁻¹ s⁻¹ and the Km was over 2000 µM.
For the compound `CC(C)(COP(=O)(O)OP(=O)(O)OC[C@H]1O[C@@H](n2cnc3c(N)ncnc32)[C@H](O)[C@@H]1OP(=O)(O)O)[C@@H](O)C(=O)NCCC(=O)NCCSC(=O)CCCCC(=O)O` [Adipyl-CoA], the “Catalytic efficiency kcat/KM” value in data set [1] was 3000 M⁻¹ s⁻¹; in data set [2], 150 M⁻¹ s⁻¹. Also, the Km was 810 µM in data set [1] and 100 µM in data set [2]. In addition, the Turnover number kcat in data set [1] was 2.5 s⁻¹; in data set [2], 0.015 s⁻¹. Besides, the “Catalytic efficiency (kcat/KM) for adipyl-CoA over succinyl-CoA” value in data set [1] (ratio of kcat/KM, FIG. 3B) is reported as “higher catalytic efficiency for adipyl-CoA over succinyl-CoA”; in data set [2] (ratio of kcat/KM, FIG. 3B), “higher catalytic efficiency for adipyl-CoA over succinyl-CoA”; in data set [3] (FIG. 3B) it was “higher catalytic efficiency for adipyl-CoA over succinyl-CoA”. In addition, the “Catalytic efficiency (kcat/KM) for adipyl-CoA over acetyl-CoA” value in data set [1] (ratio of kcat/KM, FIG. 3C) is “higher catalytic efficiency for adipyl-CoA over acetyl-CoA”; in data set [2] (ratio of kcat/KM, FIG. 3C) it was “higher catalytic efficiency for adipyl-CoA over acetyl-CoA”; in data set [3] (FIG. 3C), “higher catalytic efficiency for adipyl-CoA over acetyl-CoA”.
As for `CC(C)(COP(=O)(O)OP(=O)(O)OC[C@H]1O[C@@H](n2cnc3c(N)ncnc32)[C@H](O)[C@@H]1OP(=O)(O)O)[C@@H](O)C(=O)NCCC(=O)NCCSC(=O)CCC(=O)O` [Succinyl-CoA], in data set [1], the “Catalytic efficiency kcat/KM” value was 290 M⁻¹ s⁻¹, the Michaelis constant (Km) was 790 µM and the Turnover number kcat was found to be 0.23 s⁻¹. Besides, in data set [2], the “Catalytic efficiency kcat/KM” value turned out to be 26 M⁻¹ s⁻¹, the Km was 400 µM and the Turnover number kcat amounted to 0.010 s⁻¹.
As a reminder, the kcat is the maximal rate divided by the concentration of active sites. Broadly, the kcat/Km is the second-order rate constant that governs catalysis at low substrate concentration. For “Romboutsia lituseburensis DSM aldehyde dehydrogenase (Ald), SEQ ID NO: 107 (Romboutsia lituseburensis DSM 797)”, in data set [4], the Km is 310 µM, the kcat was found to be 0.013 s⁻¹ and the specificity constant (kcat/Km) is 40 M⁻¹ s⁻¹. In addition, in data set [5], the Km was 220 µM, the kcat is 0.056 s⁻¹ and the kcat/Km turned out to be 250 M⁻¹ s⁻¹. Also, in data set [6], the Km is 240 µM, the catalytic constant (kcat) was 1.0 s⁻¹ and the kcat/Km was 4000 M⁻¹ s⁻¹.

These data come from patent US12577594B2, “Engineered microorganisms and methods for improved aldehyde dehydrogenase activity” (Genomatica, Inc., priority 2019, dated 2026).
